Measurements published in patent US7345082B2, “Phosphinic acids” (Hoffmann-La Roche Inc., priority 2003, dated 2008).

What follows are molecules tested against T1, purified BACE protein (β-secretase) (Homo sapiens, UniProt P56817) (assay: Competitive Radioligand Binding Assay (RLBA)). Settings: β-secretase inhibition; displacement of tritiated Compound A from BACE-coated plates, pH 4.1; read-out: IC50 in vitro.
T1 construct: made in house
T1 sequence (P56817 46-501): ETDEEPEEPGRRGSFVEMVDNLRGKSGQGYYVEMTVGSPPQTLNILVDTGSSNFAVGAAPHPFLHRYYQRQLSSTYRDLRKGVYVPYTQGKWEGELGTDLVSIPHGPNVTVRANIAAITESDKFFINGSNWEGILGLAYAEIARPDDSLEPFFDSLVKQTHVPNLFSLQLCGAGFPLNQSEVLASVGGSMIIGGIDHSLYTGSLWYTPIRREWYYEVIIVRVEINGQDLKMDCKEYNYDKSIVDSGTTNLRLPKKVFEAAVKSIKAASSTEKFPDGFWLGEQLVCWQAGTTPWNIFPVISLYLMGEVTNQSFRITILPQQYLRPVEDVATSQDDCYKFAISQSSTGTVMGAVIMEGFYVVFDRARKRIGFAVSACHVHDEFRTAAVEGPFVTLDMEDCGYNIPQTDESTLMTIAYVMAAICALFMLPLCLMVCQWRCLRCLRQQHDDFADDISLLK
Protocol: Competitive Radioligand Binding Assay (RLBA)
96 well microplates (Optiplate Packard) are coated with purified BACE protein (see e.g. GB 2,385,124: Examples 1 and 2) using a concentration of 1 μg/ml in 30 mM sodium citrate buffer adjusted to pH 5.5. The coating is achieved by incubation of 100 μl/well for 1-3 days at 4° C. The plate is then washed with 2×300 μl/well of 10 mM citrate pH 4.1. To each well 100 μl binding buffer (30 mM citrate, 100 mM NaCl, 0.1% BSA, pH 4.1) is dispensed. The test compound is added in 5 μl from a DMSO stock solution or appropriate dilutions. To this the tracer (tritiated Compound A, see e.g. GB 2,385,124: Example 4) is added in 10 µl/well from a 10 μCi/ml stock solution in binding buffer. After incubation for 1.5-2 hours in a humid chamber at ambient temperature the plate is washed with 2×300 μl/well water and flipped on a dry towel. Following the addition of 50 μl/well Micro-Scint20 (Packard) the plate is sealed and vibrated for 5 seconds. The bound radioactivity is counted on a Topcount (Packard). Total binding is typically between 2000 and 10000 cpm/well depending mainly on the purity and concentration of the BACE protein. Non-specific binding as assessed by competition with >1 μM peptidic inhibitor (Bachem # H-4848) is typically between 30 and 300 cpm/well. The IC-50 values are calculated by Microsoft Excel FIT.
CCCN(CCC)C(=O)c1cccc(C(=O)N[C@@H](Cc2ccccc2)P(=O)(O)CC(C)C(=O)NCCC(C)C)c1 (mixture of isomers) [Compound I-37, [(R)-1-(3-dipropylcarbamoyl-benzoylamino)-2-phenyl-ethyl]-[2-(3-methyl-butylcarbamoyl)-propyl]-phosphinic acid] showed an IC50 of 40 nM. With CCCN(CCC)C(=O)c1cccc(C(=O)N[C@@H](Cc2ccccc2)P(=O)(O)CC(C)C(=O)Nc2ccccc2)c1 (mixture of isomers) [Compound I-18, [(R)-1-(3-dipropylcarbamoyl-benzoylamino)-2-phenyl-ethyl]-(2-phenylcarbamoyl-propyl)-phosphinic acid] the IC50 was 10 nM. CCCN(CCC)C(=O)c1cccc(C(=O)NC(Cc2ccccc2)P(=O)(O)CC(C(=O)Nc2ccc(C)cc2)C(C)C)c1 (centres unmarked) [Compound I-14, [1-(3-dipropylcarbamoyl-benzoylamino)-2-phenyl-ethyl]-(3-methyl-2-p-tolylcarbamoyl-butyl)-phosphinic acid] was tested, and the IC50 was 200 nM. For CCCOc1cc(C(=O)N[C@@H](Cc2ccccc2)P(=O)(O)CC(C)C(=O)Nc2ccccc2)cc(N2CCCC2=O)c1 (stereo partly drawn) [Compound I-5, {(R)-1-[3-(2-oxo-pyrrolidin-1-yl)-5-propoxy-benzoylamino]-2-phenyl-ethyl}-(2-phenylcarbamoyl-propyl)-phosphinic acid], the IC50 was 50 nM. Molecule CCCN(CCC)C(=O)c1cccc(C(=O)N[C@@H](Cc2ccccc2)P(=O)(O)CC(C)C(=O)NC2CCCCC2)c1 (stereo partly drawn) [Compound I-42, (2-cyclohexylcarbamoyl-propyl)-[(R)-1-(3-dipropylcarbamoyl-benzoylamino)-2-phenyl-ethyl]-phosphinic acid] has an IC50 of 20 nM.
